Test results taken from patent US11510914B2, “Agent for inhibiting rise in intraneuronal calcium concentration” (Toray Industries, Inc., priority 2018, dated 2022).

Test system: rat spinal dorsal root ganglion (DRG) neurons
Assay: High potassium-induced rise in intracellular calcium concentration of rat DRG neurons (Cal-520 AM fluorescence imaging)
Type: cell-based
Settings: Rattus norvegicus, DRG neuron; compound 30 μmol/L; high potassium treatment (KCl 30 mmol/L); average of 60 to 250 cells per group; vehicle group = 0%; read-out: Inhibition rate (%) of a rise in intracellular calcium concentration
Excerpt: Example 4 Effect of the cyclic amine derivative (I) or a pharmacologically acceptable salt thereof on high potassium-induced rise in intracellular calcium concentration of rat spinal dorsal root ganglion (DRG) neurons:
The cyclic amine derivative (I) or a pharmacologically acceptable salt thereof was examined for its inhibitory effect on high potassium-induced rise in intracellular calcium concentration of DRG neurons.
The SD rats (4 to 6 weeks old, male; Charles River Laboratories Japan, Inc.) were anesthetized and euthanized by bloodletting from abdominal aorta. After incision of the dorsal part, the spinal column was excised and cooled in ice. The dorsal column was cut off, and the spinal cord was removed from the ventral side of the spinal column. Then, DRGs (L4 to L6) with nerve fibers were excised with tweezers. The excised DRGs were dipped in ice-cold Leibovitz's L-15 medium (Thermo Fisher Scientific), and the nerve fibers were removed under a stereoscopic microscope to separate DRG.
The separated DRGs were made fine slits with ophthalmic scissors, followed by incubation at 37° C. for 20 minutes with Collagenase A (Roche Molecular Systems). After centrifugation at 200×g for 5 minutes, the supernatant was removed, and 0.05% Trypsin-EDTA (Thermo Fisher Scientific) was added, followed by incubation at 37° C. for 5 minutes. DMEM (Thermo Fisher Scientific) containing 1% penicillin-streptomycin (Thermo Fisher Scientific) and 10% fetal bovine serum (Thermo Fisher Scientific) was added thereto. After centrifugation at 200×g for 5 minutes, the supernatant was removed. After the removal of the supernatant, Neurobasal-A Medium (Thermo Fisher Scientific) containing 1% penicillin-streptomycin and 2% B-27 (Thermo Fisher Scientific), which was prepared as a DRG nerve culture medium, was added. Then, the cells were dissociated by micropipetting. The dissociated cells were passed through a 70 μm cell strainer (Greiner) and centrifuged at 200×g for 5 minutes. After the centrifugation, the supernatant was removed, and the cells were suspended by the culture medium. This cell suspension was inoculated to a polylysine-coated 35 mm dish (Matsunami Glass Ind., Ltd.) coated in advance with laminin (Sigma-Aldrich), cultured overnight at 37° C. under 5% CO2, and then used in the measurement of change in intracellular calcium concentration.
Cal-520, AM(registered trademark) (AAT Bioquest) was used as a calcium fluorescent dye. The medium was removed from the cells cultured in the dish, and the cells were washed twice with a perfusate. Then, a Cal-520, AM solution adjusted to 4 μmol/L was added thereto, and the cells were cultured at 37° C. for 1 to 1.5 hours under 5% CO2. The perfusate was an aqueous solution containing NaCl (140 mmol/L), KCl (5 mmol/L), CaCl2)·2H2O (1.2 mmol/L), MgCl2.6H2O (2 mmol/L), D(+)-glucose (14 mmol/L) and HEPES (10 mmol/L), adjusted to pH 7.4. Then, the dish was washed by perfusion at 2 mL/min for 10 minutes.
Change in intracellular calcium concentration was measured by analyzing with analytical software, change in fluorescence intensity of the cells loaded with the calcium fluorescent dye in images taken under a confocal laser microscope system (Nikon Instech Co., Ltd.). The laser wavelength was 488 nm, and the images were acquired at intervals of 57 to 60 sheets per minute.
For the induction of neuronal excitation, a treatment with a high potassium solution (hereinafter, “high potassium treatment”) was performed to induce a rise in intracellular calcium concentration by the depolarization of cell membranes. The high potassium treatment and a treatment with the cyclic amine derivative (I) or a pharmacologically acceptable salt thereof (compounds 1 to 10, compound of Comparative Example 1 and compound of Comparative Example 2) (hereinafter, “compound treatment”) of the cells were performed by the perfusion and replacement of a solution. The perfusion rate was controlled to 2 mL/min using a tube pump. […]

SMILES	inhibition at 30 µM
CN1CCN(C2CCN(C(=O)CC(O)c3nccn3C)CC2)CC1 (stereo not shown) [Compound 6, 3-hydroxy-3-(1-methyl-1H-imidazol-2-yl)-1-(4-(4-methylpipzerazin-1-yl)piperidin-1-yl)propan-1-one]	23.3%
CN(C)C1CCN(C(=O)CC(O)c2ncc(Cl)n2C)CC1 (stereo not shown) [Compound 9, 3-(5-chloro-1-methyl-1H-imidazol-2-yl)-1-(4-(dimethylamino)piperidin-1-yl)-3-hydroxypropan-1-one]	7.1%
CN(C)C1CCN(C(=O)CC(O)c2nccn2CCC(F)(F)F)CC1 (stereo not shown) [Compound of Comparative Example 2, 1-(4-(dimethylamino)piperidin-1-yl)-3-(1-(3,3,3-trifluoropropyl)-1H-imidazol-2-yl)-3-hydroxypropan-1-one, reference compound]	-1.1%
CN(C)[C@@H]1CCCN(C(=O)CC(O)c2nccn2C)C1 (stereo partly shown) [Compound 5]	39%
CC(C)n1ccnc1C(O)CC(=O)N1CCC(N(C)C)CC1 (stereo not shown) [Compound 10, 1-(4-(dimethylamino)piperidin-1-yl)-3-(1-isopropyl-1H-imidazol-2-yl)-3-hydroxypropan-1-one]	5.9%
CCCn1ccnc1C(O)CC(=O)N1CCC(N(C)C)CC1 (stereo not shown) [Compound 7, 1-(4-(dimethylamino)piperidin-1-yl)-3-(1-propyl-1H-imidazol-2-yl)-3-hydroxypropan-1-one]	15.4%
COCCn1ccnc1C(O)CC(=O)N1CCC(N(C)C)CC1 (stereo not shown) [Compound of Comparative Example 1, 1-(4-(dimethylamino)piperidin-1-yl)-3-(1-(2-methoxyethyl)-1H-imidazol-2-yl)-3-hydroxypropan-1-one, reference compound]	-3.3%

Same assay, conditions: Rattus norvegicus, DRG neuron; compound 30 μmol/L; high potassium treatment (KCl 32.5 mmol/L or 30 mmol/L); average of 106 to 262 cells per group; vehicle group = 0%; read-out: Inhibition rate (%) of a rise in intracellular calcium concentration

SMILES	inhibition at 30 µM
CN(C)C1CCN(C(=O)CCc2nccn2C)CC1 [Compound 4, 1-(4-(dimethylamino)piperidin-1-yl)-3-(1-methyl-1H-imidazol-2-yl)propan-1-onesulfatemonohydrate]	11.9%
CN(C)C1CCN(C(=O)CC(O)c2nccn2CC(F)(F)F)CC1 (stereo not shown) [Compound 3, 1-(4-(dimethylamino)piperidin-1-yl)-3-hydroxy-3-(1-(2,2,2-trifluoroethyl)-1H-imidazol-2-yl)propan-1-one]	17.8%
CN(C)C1CCN(C(=O)C[C@H](O)c2nccn2C)CC1 [Compound 2, (S)-1-(4-(dimethylamino)piperidin-1-yl)-3-hydroxy-3-(1-methyl-1H-imidazol-2-yl)propan-1-one]	19.3%
CCn1ccnc1C(O)CC(=O)N1CCC(N(C)C)CC1 (stereo not shown) [Compound 1, 1-(4-(dimethylamino)piperidin-1-yl)-3-(1-ethyl-1H-imidazol-2-yl)-3-hydroxypropan-1-one]	35.5%

Same assay, conditions: compound 30 μmol/L; KCl 30 mmol/L; compared to vehicle treatment group; Table 5 experiment

SMILES	Inhibition of high potassium-induced rise in intracellular calcium concentration, in words
CN(C)C1CCN(C(=O)CC(O)c2nccn2CCC(F)(F)F)CC1 (stereo not shown) [Compound of Comparative Example 2, 1-(4-(dimethylamino)piperidin-1-yl)-3-(1-(3,3,3-trifluoropropyl)-1H-imidazol-2-yl)-3-hydroxypropan-1-one, reference compound]	not inhibited
COCCn1ccnc1C(O)CC(=O)N1CCC(N(C)C)CC1 (stereo not shown) [Compound of Comparative Example 1, 1-(4-(dimethylamino)piperidin-1-yl)-3-(1-(2-methoxyethyl)-1H-imidazol-2-yl)-3-hydroxypropan-1-one, reference compound]	not inhibited
